From patent US5691381A, “Hydroxamic and carbocyclic acids as metalloprotease inhibitors” (The DuPont Merck Pharmaceutical Company, priority 1996, dated 1997)

Test system: cartilage degradation (proteoglycan content in the synovial fluid)
Test: Acute Cartilage Degradation Rat Model
Assay type: in vivo
Details: rats, after compound administration
From the text: An in vivo model of acute cartilage degradation in rats has been characterized as a method to determine the proteoglycan content in the synovial fluid after the induction of cartilage degradation.

With `COc1ccc2c(c1)c(CC(=O)O)c(C)n2C(=O)c1ccc(Cl)cc1` [Indomethacin] the “inhibition of cartilage degradation, as measured by increased proteoglycan content in the synovial fluid” value was “inactive”.
